Test results taken from patent US10583137B2, “Triazole DAGLα inhibitors” (THE SCRIPPS RESEARCH INSTITUTE, priority 2015, dated 2020).

What was measured:
[1] = tested on: DSI at CA1 pyramidal neuron synapses; test: depolarization-induced suppression of inhibition (DSI) in hippocampal slices; details: bath application 30 min
Experimental: DSI was evaluated at CA1 pyramidal neuron synapses in hippocampal slices. DSI was induced in vehicle-treated hippocampal slices by applying a brief depolarization while evoking […] through stimulation of synaptic inhibitory inputs (FIG. 7C). Bath application of compound 14 (10 μM) and compound 17 (1 μM), but not compound 22 (10 μM), for 30 min before starting electrophysiological recordings blocked hippocampal DSI (FIGS. 7C and D).

[2] = tested on: LPS-induced neuroinflammatory responses (brain lipids, cytokines, body temperature); test: LPS-induced neuroinflammatory responses in mouse brain; assay type: in vivo; details: mice; for LPS-induced elevation in brain 2-AG / LPS-induced elevation in brain PGE2 / LPS-stimulated brain cytokines: 50 mg/kg i.p. 60-90 min before LPS 20 mg/kg i.p., 6 hr; for LPS-induced anapyrexia: 50 mg/kg i.p. before LPS; for brain 2-AG under basal control conditions / brain AA under basal control conditions / brain PGE2 under basal control conditions: 50 mg/kg i.p., no LPS
Experimental: The effects of pharmacological and genetic inactivation of DAGL activity on neuroinflammatory responses (brain prostaglandin and cytokine production) induced by high-dose lipopolysaccharide treatment was examined.
Mice were treated with compounds 14, 17, control compound 22 or vehicle (50 mg/kg, i.p) for 60-90 min, followed by LPS (20 mg/kg, i.p., 6 hr) or vehicle. The mice were subsequently sacrificed and their brain lipid and cytokine profiles analyzed. […] The LPS-induced elevations in both 2-AG and PGE2 were suppressed in compound 14 and compound 17 treated mice and DAGLα/mice, but not compound 22 treated mice. […] LPS-induced anapyrexia was blunted in compound 14 and 17 treated mice (FIG. 8E) and DAGLα−/− mice (FIG. 8F), but not compound 22 treated mice (FIG. 8E).

serine hydrolases = test: ABPP selectivity against serine hydrolases in mouse brain proteome; assay type: biochemical
Experimental: Compounds 14 and 17 were evaluated for activity and selectivity against endogenous DAGLs and other serine hydrolases in the mouse brain proteome using a ABPP of mouse brain proteome assay as described in Example 16. These experiments were performed using three different activity-based probesprobe compound 58 (targets DAGLα and DAGLβ), HT-01 (targets DAGLα and DAGLβ), and FP-Rh (broad-spectrum serine hydrolase-directed probe fluorophosphonate-rhodamine).
Data represent average values±SEM; n=3 per group. […] Compounds 14 and 17 had minimal and negligible binding, respectively, to cannabinoid CB1 (CB1R) and CB2 (CB2R) receptors as measured with a radioligand binding assay (IC50 values>1 μM) (data not shown).
The selectivity of compounds 14 and 17 for additional serine hydrolases was assessed using probe FP-Rh (0.5 μM, 20 min; data not shown). Representative mouse brain serine hydrolases detected by FP-Rh were FAAH, MAGL, and ABHD6.

recombinant human DAGLβ = recombinant human DAGLβ (Homo sapiens (Human), UniProt Q8NCG7); test: SAG substrate assay (in vitro inhibition of 2-AG biosynthesis), membrane lysates from HEK293T cells; assay type: biochemical
Chain of recombinant human DAGLβ (Q8NCG7 whole entry): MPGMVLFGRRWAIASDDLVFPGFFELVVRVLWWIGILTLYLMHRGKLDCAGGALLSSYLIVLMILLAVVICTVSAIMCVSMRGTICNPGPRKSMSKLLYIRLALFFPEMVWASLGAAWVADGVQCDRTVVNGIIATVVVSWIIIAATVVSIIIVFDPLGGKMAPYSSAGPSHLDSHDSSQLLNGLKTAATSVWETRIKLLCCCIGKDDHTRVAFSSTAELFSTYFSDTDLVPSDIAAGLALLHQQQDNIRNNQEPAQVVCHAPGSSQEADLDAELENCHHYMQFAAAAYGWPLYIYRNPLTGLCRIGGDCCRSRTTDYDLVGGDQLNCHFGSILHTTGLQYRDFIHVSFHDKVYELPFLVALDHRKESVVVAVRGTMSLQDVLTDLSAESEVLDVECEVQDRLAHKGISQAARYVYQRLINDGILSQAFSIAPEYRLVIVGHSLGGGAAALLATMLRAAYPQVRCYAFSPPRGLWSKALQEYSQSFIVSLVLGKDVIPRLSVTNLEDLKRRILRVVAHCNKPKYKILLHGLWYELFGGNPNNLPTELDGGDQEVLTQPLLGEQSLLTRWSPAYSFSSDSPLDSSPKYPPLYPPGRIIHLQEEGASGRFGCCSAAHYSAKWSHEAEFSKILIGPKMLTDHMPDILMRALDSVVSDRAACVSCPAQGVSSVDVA
Experimental: (§1) DAGL modulators were tested for in vitro inhibition of 2-AG biosynthesis using a 1-stearoyl-2-arachidonoyl-sn-glycerol (SAG) substrate assay in DAGL-transfected HEK293 cells.
(§2) The SAG substrate assay, as described in Journal of lipid research 56(4):927-935, was performed using the following assay conditions: 0.2 U/mL glycerol kinase (GK), glycerol-3-phosphate oxidase (GPO) and horseradish peroxidase (HRP), 0.125 mM ATP, 10 μM Amplifu™Red, 5% DMSO in a total volume of 200 μL. The assay additionally contained SAG, a DAGL modulator, and membrane lysates from HEK293T cells expressing recombinant human DAGLα or DAGLβ.
(§3) Membranes were prepared from HEK293T cells transiently transfected with DAGLα or DAGLβ plasmids encoding for full length DAGLα or DAGLβ, respectively (Angewandte Chemie 52(46):12081-12085; Journal of Medicinal Chemistry 57(15):6610-6622). Briefly, one day prior to transfection, 10^7 cells were seeded in a 15 cm petri dish. The seeded cells were transfected by the addition of a 3:1 mixture of polyethyleneimine (60 μg) and plasmid DNA (20 μg) in 2 mL serum free medium. The medium was refreshed after 24 hr, and after 72 hr the cells were harvested by suspending them in 20 mL medium. The suspension was centrifuged for 10 min at 1000 rpm, and the supernatant was removed. The cell pellet was stored at −80° C. until use. Cell pellets were thawed on ice and suspended in lysis buffer A (20 mM HEPES, 2 mM DTT, 0.25 M sucrose, 1 mM MgCl2, lx protease inhibitor cocktail (Roche cOmplete EDTA free), 25 U/μL Benzonase). The suspension was homogenized by polytrone (3×7 sec) and incubated for 30 min on ice. The suspension was subjected to ultracentrifugation (100,000×g, 30 min, 4° C., Beckman Coulter, Type Ti70 rotor) to yield the cytosolic fraction in the supernatant and the membrane fraction as a pellet. The pellet was resuspended in lysis buffer B (20 mM HEPES, 2 mM DTT, lx protease inhibitor cocktail (Roche cOmplete EDTA free)) and the protein concentration determined with Quick Start Bradford assay (Biorad). The protein fractions were diluted to a total protein concentration of 1 mg/mL and stored in small aliquots at −80° C. until use.

recombinant human DAGLα = recombinant human DAGLα (Homo sapiens (Human), UniProt Q9Y4D2); test: as above; assay type: biochemical; details: n=4, read-out: IC50, DAGLα conversion of SAG to 2-AG
Chain of recombinant human DAGLα (Q9Y4D2 whole entry): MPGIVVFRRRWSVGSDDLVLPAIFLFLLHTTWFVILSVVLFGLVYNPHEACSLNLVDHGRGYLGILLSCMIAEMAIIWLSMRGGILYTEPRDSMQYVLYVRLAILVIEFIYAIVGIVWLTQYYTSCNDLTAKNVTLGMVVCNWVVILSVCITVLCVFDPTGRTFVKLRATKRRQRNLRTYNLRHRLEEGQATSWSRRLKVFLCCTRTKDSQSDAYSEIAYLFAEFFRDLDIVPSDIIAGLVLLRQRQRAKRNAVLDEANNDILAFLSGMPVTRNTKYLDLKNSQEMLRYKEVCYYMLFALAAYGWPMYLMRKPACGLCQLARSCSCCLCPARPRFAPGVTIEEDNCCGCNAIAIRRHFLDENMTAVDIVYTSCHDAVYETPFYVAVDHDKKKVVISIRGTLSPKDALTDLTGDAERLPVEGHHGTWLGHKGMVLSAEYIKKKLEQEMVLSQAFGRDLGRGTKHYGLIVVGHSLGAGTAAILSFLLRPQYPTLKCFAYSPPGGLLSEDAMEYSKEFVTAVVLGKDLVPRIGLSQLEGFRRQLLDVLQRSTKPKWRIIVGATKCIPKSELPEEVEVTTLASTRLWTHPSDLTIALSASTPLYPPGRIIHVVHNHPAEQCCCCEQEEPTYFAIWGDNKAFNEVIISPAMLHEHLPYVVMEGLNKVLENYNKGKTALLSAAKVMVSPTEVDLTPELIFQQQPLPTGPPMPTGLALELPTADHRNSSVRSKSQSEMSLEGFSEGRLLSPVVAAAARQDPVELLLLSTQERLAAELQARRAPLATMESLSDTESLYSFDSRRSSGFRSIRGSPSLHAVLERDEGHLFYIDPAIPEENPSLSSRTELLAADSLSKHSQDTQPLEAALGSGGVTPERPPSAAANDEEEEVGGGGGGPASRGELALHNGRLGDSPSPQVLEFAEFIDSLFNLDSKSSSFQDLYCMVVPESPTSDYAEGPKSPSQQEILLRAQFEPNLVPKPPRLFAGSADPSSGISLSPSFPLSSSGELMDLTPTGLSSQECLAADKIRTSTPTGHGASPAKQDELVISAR
Experimental: as §1, §2, §3

[3] = tested on: brain 2-AG and other DAGL-regulated lipids; test: brain lipid profiles of treated mice by LC-MS; assay type: in vivo, mouse; details: for brain 2-AG levels / brain AA / brain AEA / brain C18:1/C20:4 DAG / brain PGD2 / brain PGE2 / brain SAG: 50 mg/kg i.p., 4 hr post-dosing
Experimental: Brain lipid profiles of mice treated with compounds 14, 17 and control compound 22.
Mice were treated with 50 mg/kg compound (i.p.), followed by lipid profiling using LC-MS at a 4 hr post-dosing. […] This depletion of brain 2-AG in compound 14 and 17-treated mice was dose-dependent (data not shown) and was observed within 2 h after injection. […] The changes in each lipid species were dose-dependent and were absent in compound 22 treated mice (FIGS. 6C, E, G, I, and K).

[4] = tested on: DSE at parallel fiber to Purkinje cell synapses; test: depolarization-induced suppression of excitation (DSE) in acute cerebellar slices; details: purkinje; bath application to cerebellar slices 30 min before recordings; read-out: half-maximal inhibition of DSE
Source text: Various forms of synaptic plasticity are regulated by 2-AG signaling, included depolarization-induced suppression of excitation (DSE) and inhibition (DSI). DSE was examined at parallel fiber (PF) to Purkinje cell (PC) synapses in acute cerebellar slices. A brief depolarization of PCs induced robust transient DSE at PF-PC synapses in vehicle treated cerebellar slices (FIG. 7A).

Row | Compound | LPS-induced elevation in brain 2-AG [2] | LPS-induced elevation in brain PGE2 [2] | LPS-stimulated brain cytokines [2] | LPS-induced anapyrexia [2] | brain 2-AG under basal control conditions [2] | brain AA under basal control conditions [2] | brain PGE2 under basal control conditions [2] | selectivity, detectable serine hydrolase off-targets (serine hydrolases) | IC50 (recombinant human DAGLβ) | IC50 (recombinant human DAGLα) | time after injection at which depletion of brain 2-AG was observed [3] | brain 2-AG levels [3] | brain AA [3] | brain AEA [3] | brain C18:1/C20:4 DAG [3] | brain PGD2 [3] | brain PGE2 [3] | brain SAG [3] | IC50 [4] | also measured
1 | C#CCO[C@@H]1CC[C@H](Cc2ccccc2)N(C(=O)n2ncc(C(O)(c3ccc(F)cc3)c3ccc(F)cc3)n2)C1 [Compound 14, ((2R,5R)-2-Benzyl-5-(prop-2-ynyloxy)piperidin-1-yl)(4-(bis(4-fluorophenyl)(hydroxy)methyl)-2H-1,2,3-triazol-2-yl)methanone] | suppressed | suppressed | reductions | blunted | severely depleted | severely depleted | severely depleted | selective for DAGLs, with the only detectable serine hydrolase off-targets being ABHD6 and PLA2G7 | 3 to 8 nM | 6 nM | ≤ 2 h | reduced | reductions | reductions | elevations | reductions | reductions | elevations | 1100 nM | effect on hippocampal DSI ([1]; 10 μM): blocked
2 | CC(C)(C)OC(=O)N1CCN(C(=O)n2cc(-c3ccc(OC(F)(F)F)cc3)nn2)C(Cc2ccccc2)C1 (stereo not shown) [Compound 17, tert-Butyl 3-benzyl-4-(4-(4-(trifluoromethoxy)phenyl)-1H-1,2,3-triazole-1-carbonyl)piperazine-1-carboxylate] | suppressed | suppressed | reductions | blunted | severely depleted | severely depleted | severely depleted | selective for DAGLs, with the only detectable serine hydrolase off-targets being ABHD6 and PLA2G7 | 3 to 8 nM | 6 nM | ≤ 2 h | reduced | reductions | reductions | elevations | reductions | reductions | elevations | 180 nM | effect on hippocampal DSI ([1]; 1 μM): blocked
